Values of other authors, collected in patent publication US20140056935A1, “PEPTIDE WHICH CAN INDUCE ANTIBODY CAPABLE OF RECOGNIZING STEREOSTRUCTURE OF HIV” (priority 2011, published 2014).

System: HIV
Details: MAGI assay, Non-Patent Document 17

## enfuvirtide
  activity relative to C34 native peptide monomer in terms of EC50 values: about 10 times
